Source: patent US9040545B2, “Heterocyclyl pyrazolopyrimidine analogues as selective JAK inhibitors” (Cellzome Limited, priority 2010, dated 2015)

Experiments:
[1] = target: T1, Aurora A (Homo sapiens, UniProt O14965); assay: Kinobeads assay, Aurora A; assay type: binding; settings: for IC50: lysate of pervanadate-treated Jurkat cells, read-out: Inhibition values (IC50) Aur A
T1 construct: cell lysates from Jurkat cells (ATCC TIB-152) used; endogenous in cells; host or cells: Jurkat cells (ATCC TIB-152), treated with pervanadate
T1 sequence (O14965 1-403): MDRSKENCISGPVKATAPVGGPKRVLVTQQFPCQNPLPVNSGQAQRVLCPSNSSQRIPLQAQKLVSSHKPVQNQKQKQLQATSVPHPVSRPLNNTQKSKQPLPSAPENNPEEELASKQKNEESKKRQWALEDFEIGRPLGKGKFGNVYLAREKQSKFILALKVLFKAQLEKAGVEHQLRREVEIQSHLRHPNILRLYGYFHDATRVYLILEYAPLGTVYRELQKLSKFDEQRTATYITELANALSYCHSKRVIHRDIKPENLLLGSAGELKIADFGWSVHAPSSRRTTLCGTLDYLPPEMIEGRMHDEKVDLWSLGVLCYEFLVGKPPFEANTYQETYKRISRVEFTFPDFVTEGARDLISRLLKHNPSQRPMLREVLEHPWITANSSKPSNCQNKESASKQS

[2] = target: T2, JAK2 (Homo sapiens, UniProt O60674); assay: Kinobeads assay, JAK2; assay type: binding; settings: mixed Molt4/Ramos lysate, read-out: Inhibition values (IC50) JAK2
T2 construct: endogenous in cells; host or cells: mixed Molt4/Ramos lysate (1:2)
How it was run: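 IC50 values come from dose-response curves of JAK2/JAK3 captured on immobilized aminopyrido-pyrimidine beads, quantified by antibody dot blot with infrared read-out. Compounds (1:3 series, 9 steps, from 5 mM DMSO stock) competed for 3 h in the cold with mixed Molt4/Ramos lysate (1:2, 10 mg/mL protein).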

T2 sequence (O60674 whole entry): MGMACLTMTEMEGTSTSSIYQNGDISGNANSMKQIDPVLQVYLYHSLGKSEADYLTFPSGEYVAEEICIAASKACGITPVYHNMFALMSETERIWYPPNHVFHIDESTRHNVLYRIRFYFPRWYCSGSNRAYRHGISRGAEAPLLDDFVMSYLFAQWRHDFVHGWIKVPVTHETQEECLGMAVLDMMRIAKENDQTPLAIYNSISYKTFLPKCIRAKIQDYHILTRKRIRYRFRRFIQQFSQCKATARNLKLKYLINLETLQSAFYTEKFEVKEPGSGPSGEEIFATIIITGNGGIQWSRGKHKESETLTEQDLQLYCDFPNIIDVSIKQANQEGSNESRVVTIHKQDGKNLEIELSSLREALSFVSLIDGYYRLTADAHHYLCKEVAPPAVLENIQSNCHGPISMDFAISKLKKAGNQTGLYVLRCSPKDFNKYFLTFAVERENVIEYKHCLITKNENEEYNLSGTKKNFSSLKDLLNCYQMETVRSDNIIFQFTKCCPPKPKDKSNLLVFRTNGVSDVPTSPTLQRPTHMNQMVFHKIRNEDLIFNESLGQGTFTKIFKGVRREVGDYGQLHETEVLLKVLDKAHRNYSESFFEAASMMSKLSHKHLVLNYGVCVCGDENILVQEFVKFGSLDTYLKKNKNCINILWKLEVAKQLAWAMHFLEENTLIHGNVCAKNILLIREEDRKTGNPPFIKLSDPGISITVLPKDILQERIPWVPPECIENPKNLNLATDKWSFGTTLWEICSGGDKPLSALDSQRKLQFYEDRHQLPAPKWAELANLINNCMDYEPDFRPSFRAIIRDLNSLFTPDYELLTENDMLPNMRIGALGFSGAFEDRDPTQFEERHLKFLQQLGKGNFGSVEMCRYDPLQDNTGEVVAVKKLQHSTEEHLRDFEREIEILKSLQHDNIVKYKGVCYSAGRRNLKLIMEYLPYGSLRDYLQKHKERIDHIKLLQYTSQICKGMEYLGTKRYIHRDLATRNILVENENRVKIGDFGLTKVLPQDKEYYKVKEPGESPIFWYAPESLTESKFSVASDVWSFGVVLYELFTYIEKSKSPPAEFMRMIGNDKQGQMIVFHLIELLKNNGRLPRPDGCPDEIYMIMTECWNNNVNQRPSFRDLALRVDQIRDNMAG

CN(C)CCCn1cc(Nc2ncc3cnn(Cc4c(F)c(F)cc(N5CCOCC5)c4F)c3n2)cn1 [Example 42, N-(1-(3-(Dimethylamino)propyl)-1H-pyrazol-4-yl)-1-(2,3,6-trifluoro-5-morpholinobenzyl)-1H-pyrazolo[3,4-d]pyrimidin-6-amine]
JAK3/AurA Fold Selectivity [1]: >50 Fold | IC50 [1]: 1000 to 10000 nM | IC50 [2]: 1000 to 10000 nM

CN(C)CCCn1cc(Nc2ncc3cnn(Cc4cccc(N5CCOCC5)c4F)c3n2)cn1 [Example 43, N-(1-(3-(Dimethylamino)propyl)-1H-pyrazol-4-yl)-1-(2-fluoro-3-morpholinobenzyl)-1H-pyrazolo[3,4-d]pyrimidin-6-amine]
JAK3/AurA Fold Selectivity [1]: >50 Fold | IC50 [1]: 1000 to 10000 nM | IC50 [2]: 1000 to 10000 nM

OCCn1cc(Nc2ncc3cnn(Cc4cc(N5CCOCC5)ccc4F)c3n2)cn1 [Example 44, 2-(4-((1-(2-Fluoro-5-morpholinobenzyl)-1H-pyrazolo[3,4-d]pyrimidin-6-yl)amino)-1H-pyrazol-1-yl)ethanol]
JAK3/AurA Fold Selectivity [1]: 10-50 Fold | IC50 [1]: 100 to 1000 nM | IC50 [2]: ≥ 10000 nM

OCCn1cc(Nc2ncc3cnn(Cc4c(F)c(F)cc(N5CCOCC5)c4F)c3n2)cn1 [Example 45, 2-(4-((1-(2,3,6-Trifluoro-5-morpholinobenzyl)-1H-pyrazolo[3,4-d]pyrimidin-6-yl)amino)-1H-pyrazol-1-yl)ethanol]
JAK3/AurA Fold Selectivity [1]: 10-50 Fold | IC50 [1]: 100 to 1000 nM | IC50 [2]: 1000 to 10000 nM

O=C1COCCN1c1cccc(Cn2ncc3cnc(Nc4cnn(CCO)c4)nc32)c1F [Example 46, 4-(2-Fluoro-3-((6-((1-(2-hydroxyethyl)-1H-pyrazol-4-yl)amino)-1H-pyrazolo[3,4-d]pyrimidin-1-yl)methyl)phenyl)morpholin-3-one]
JAK3/AurA Fold Selectivity [1]: 10-50 Fold | IC50 [1]: 100 to 1000 nM | IC50 [2]: 1000 to 10000 nM

OCCn1cc(Nc2ncc3cnn(Cc4cccc(N5CCNCC5)c4)c3n2)cn1 [Example 47, 2-(4-((1-(3-(piperazin-1-yl)benzyl)-1H-pyrazolo[3,4-d]pyrimidin-6-yl)amino)-1H-pyrazol-1-yl)ethanol]
JAK3/AurA Fold Selectivity [1]: 10-50 Fold | IC50 [1]: 100 to 1000 nM | IC50 [2]: 1000 to 10000 nM

c1cc(Cn2ncc3cnc(Nc4cnn(CC5CCCNC5)c4)nc32)cc(N2CCOCC2)c1 (stereo not drawn) [Example 48, 1-(3-Morpholinobenzyl)-N-(1-(piperidin-3-ylmethyl)-1H-pyrazol-4-yl)-1H-pyrazolo[3,4-d]pyrimidin-6-amine]
JAK3/AurA Fold Selectivity [1]: >50 Fold | IC50 [1]: 1000 to 10000 nM | IC50 [2]: 1000 to 10000 nM

Cn1cc(Nc2ncc3cnn(Cc4cc(F)cc(N5CCOCC5)c4)c3n2)cn1 [Example 49, 1-(3-Fluoro-5-morpholinobenzyl)-N-(1-methyl-1H-pyrazol-4-yl)-1H-pyrazolo[3,4-d]pyrimidin-6-amine]
JAK3/AurA Fold Selectivity [1]: 10-50 Fold | IC50 [1]: 100 to 1000 nM | IC50 [2]: 1000 to 10000 nM

CN(C)CCCn1cc(Nc2ncc3cnn(Cc4cccc(N5CCOCC5=O)c4F)c3n2)cn1 [Example 50, 4-(3-((6-((1-(3-(Dimethylamino)propyl)-1H-pyrazol-4-yl)amino)-1H-pyrazolo[3,4-d]pyrimidin-1-yl)methyl)-2-fluorophenyl)morpholin-3-one]
JAK3/AurA Fold Selectivity [1]: >50 Fold | IC50 [1]: 100 to 1000 nM | IC50 [2]: 1000 to 10000 nM

OCCn1cc(Nc2ncc3cnn(Cc4cc(F)cc(N5CCOCC5)c4)c3n2)cn1 [Example 51, 2-(4-((1-(3-Fluoro-5-morpholinobenzyl)-1H-pyrazolo[3,4-d]pyrimidin-6-yl)amino)-1H-pyrazol-1-yl)ethanol]
JAK3/AurA Fold Selectivity [1]: 10-50 Fold | IC50 [1]: 100 to 1000 nM | IC50 [2]: 1000 to 10000 nM

Cn1cc(Nc2ncc3cnn(Cc4cc(F)cc(N5CCOCC5=O)c4)c3n2)cn1 [Example 52, 4-(3-Fluoro-5-((6-((1-methyl-1H-pyrazol-4-yl)amino)-1H-pyrazolo[3,4-d]pyrimidin-1-yl)methyl)phenyl)morpholin-3-one]
JAK3/AurA Fold Selectivity [1]: >50 Fold | IC50 [1]: 100 to 1000 nM | IC50 [2]: 1000 to 10000 nM

Cn1cc(Nc2ncc3cnn(Cc4cc(N5CCOCC5=O)cc(F)c4F)c3n2)cn1 [Example 53, 4-(3,4-Difluoro-5-((6-((1-methyl-1H-pyrazol-4-yl)amino)-1H-pyrazolo[3,4-d]pyrimidin-1-yl)methyl)phenyl)morpholin-3-one]
JAK3/AurA Fold Selectivity [1]: >50 Fold | IC50 [1]: 100 to 1000 nM | IC50 [2]: ≥ 10000 nM

Cn1cc(Nc2ncc3cnn(Cc4cccc(N5CCNCC5=O)c4F)c3n2)cn1 [Example 54, 1-(2-Fluoro-3-((6-((1-methyl-1H-pyrazol-4-yl)amino)-1H-pyrazolo[3,4-d]pyrimidin-1-yl)methyl)phenyl)piperazin-2-one]
JAK3/AurA Fold Selectivity [1]: >50 Fold | IC50 [1]: 100 to 1000 nM | IC50 [2]: 1000 to 10000 nM

O=C1CNCCN1c1cccc(Cn2ncc3cnc(Nc4cnn(CCO)c4)nc32)c1F [Example 55, 1-(2-Fluoro-3-((6-((1-(2-hydroxyethyl)-1H-pyrazol-4-yl)amino)-1H-pyrazolo[3,4-d]pyrimidin-1-yl)methyl)phenyl)piperazin-2-one]
JAK3/AurA Fold Selectivity [1]: 10-50 Fold | IC50 [1]: 100 to 1000 nM | IC50 [2]: 1000 to 10000 nM

OCCn1cc(Nc2ncc3cnn(Cc4cc(N5CCOCC5)cc(F)c4F)c3n2)cn1 [Example 56, 2-(4-((1-(2,3-Difluoro-5-morpholinobenzyl)-1H-pyrazolo[3,4-d]pyrimidin-6-yl)amino)-1H-pyrazol-1-yl)ethanol]
JAK3/AurA Fold Selectivity [1]: >50 Fold | IC50 [1]: 1000 to 10000 nM | IC50 [2]: ≥ 10000 nM

O=C1CNCCN1c1cccc(Cn2ncc3cnc(Nc4cnn(CCO)c4)nc32)c1 [Example 57, 1-(3-((6-((1-(2-Hydroxyethyl)-1H-pyrazol-4-yl)amino)-1H-pyrazolo[3,4-d]pyrimidin-1-yl)methyl)phenyl)piperazin-2-one]
JAK3/AurA Fold Selectivity [1]: 10-50 Fold | IC50 [1]: 100 to 1000 nM | IC50 [2]: ≥ 10000 nM

O=C1COCCN1c1cc(F)cc(Cn2ncc3cnc(Nc4cnn(CCO)c4)nc32)c1 [Example 58, 4-(3-Fluoro-5-((6-((1-(2-hydroxyethyl)-1H-pyrazol-4-yl)amino)-1H-pyrazolo[3,4-d]pyrimidin-1-yl)methyl)phenyl)morpholin-3-one]
JAK3/AurA Fold Selectivity [1]: 10-50 Fold | IC50 [1]: 100 to 1000 nM | IC50 [2]: 1000 to 10000 nM

O=C1COCCN1c1cc(F)c(F)c(Cn2ncc3cnc(Nc4cnn(CCO)c4)nc32)c1 [Example 59, 4-(3,4-Difluoro-5-((6-((1-(2-hydroxyethyl)-1H-pyrazol-4-yl)amino)-1H-pyrazolo[3,4-d]pyrimidin-1-yl)methyl)phenyl)morpholin-3-one]
JAK3/AurA Fold Selectivity [1]: 10-50 Fold | IC50 [1]: 100 to 1000 nM | IC50 [2]: ≥ 10000 nM

c1cc(Cn2ncc3cnc(Nc4cnn(CC5CCNC5)c4)nc32)cc(N2CCOCC2)c1 (stereo not drawn) [Example 60, 1-(3-Morpholinobenzyl)-N-(1-(pyrrolidin-3-ylmethyl)-1H-pyrazol-4-yl)-1H-pyrazolo[3,4-d]pyrimidin-6-amine]
JAK3/AurA Fold Selectivity [1]: >50 Fold | IC50 [1]: 1000 to 10000 nM | IC50 [2]: 1000 to 10000 nM

Cn1cc(Nc2ncc3cnn(Cc4c(F)c(F)cc(N5CCOCC5=O)c4F)c3n2)cn1 [Example 61, 4-(2,4,5-Trifluoro-3-((6-((1-methyl-1H-pyrazol-4-yl)amino)-1H-pyrazolo[3,4-d]pyrimidin-1-yl)methyl)phenyl)morpholin-3-one]
JAK3/AurA Fold Selectivity [1]: >50 Fold | IC50 [1]: 100 to 1000 nM | IC50 [2]: 1000 to 10000 nM

O=C1COCCN1c1cc(F)c(F)c(Cn2ncc3cnc(Nc4cnn(CCO)c4)nc32)c1F [Example 62, 4-(2,4,5-Trifluoro-3-((6-((1-(2-hydroxyethyl)-1H-pyrazol-4-yl)amino)-1H-pyrazolo[3,4-d]pyrimidin-1-yl)methyl)phenyl)morpholin-3-one]
JAK3/AurA Fold Selectivity [1]: 10-50 Fold | IC50 [1]: 100 to 1000 nM | IC50 [2]: 1000 to 10000 nM

O=C1CNCCN1c1cc(F)cc(Cn2ncc3cnc(Nc4cnn(CCO)c4)nc32)c1 [Example 63, 1-(3-Fluoro-5-((6-((1-(2-hydroxyethyl)-1H-pyrazol-4-yl)amino)-1H-pyrazolo[3,4-d]pyrimidin-1-yl)methyl)phenyl)piperazin-2-one]
JAK3/AurA Fold Selectivity [1]: 10-50 Fold | IC50 [1]: 100 to 1000 nM | IC50 [2]: 1000 to 10000 nM

Cn1cc(Nc2ncc3cnn(Cc4cc(F)cc(N5CCNCC5=O)c4)c3n2)cn1 [Example 64, 1-(3-Fluoro-5-((6-((1-methyl-1H-pyrazol-4-yl)amino)-1H-pyrazolo[3,4-d]pyrimidin-1-yl)methyl)phenyl)piperazin-2-one]
JAK3/AurA Fold Selectivity [1]: 10-50 Fold | IC50 [1]: 100 to 1000 nM | IC50 [2]: 1000 to 10000 nM

COC1CN(c2cccc(Cn3ncc4cnc(Nc5cnn(C)c5)nc43)c2)C1 [Example 65, 1-(3-(3-Methoxyazetidin-1-yl)benzyl)-N-(1-methyl-1H-pyrazol-4-yl)-1H-pyrazolo[3,4-d]pyrimidin-6-amine]
JAK3/AurA Fold Selectivity [1]: >50 Fold | IC50 [1]: 1000 to 10000 nM | IC50 [2]: ≥ 10000 nM

Cn1cc(Nc2ncc3cnn(Cc4c(F)c(F)cc(N5CCNCC5)c4F)c3n2)cn1 [Example 66, N-(1-Methyl-1H-pyrazol-4-yl)-1-(2,3,6-trifluoro-5-(piperazin-1-yl)benzyl)-1H-pyrazolo[3,4-d]pyrimidin-6-amine]
JAK3/AurA Fold Selectivity [1]: 10-50 Fold | IC50 [1]: 100 to 1000 nM | IC50 [2]: 1000 to 10000 nM
